{"source": "paper PMC10916518", "about": "(Drug Design, Development and Therapy, 2024)", "key": {"[1]": {"system": "RD cells", "experiment": "Cytotoxicity of medicines by CCK-8", "type": "cell-based, human", "conditions": "48 h"}, "[2]": {"system": "EV71", "experiment": "Inhibition of cell death caused by EV71 infection", "type": "cell-based, Enterovirus 71", "conditions": "Enterovirus A, EV71, RD, 48 h"}, "[3]": {"system": "EV71", "conditions": "Vero cells pretreated with 200 μM before infection; cited from earlier work"}, "[4]": {"experiment": "Cytotoxicity of medicines by CCK-8", "type": "cell-based, human", "conditions": "human, RD cells"}}}
{"compound": "O=c1c(O[C@@H]2O[C@H](CO)[C@@H](O)[C@H](O)[C@H]2O)c(-c2ccc(O)cc2)oc2cc(O)cc(O)c12", "note": "[Astragalin]", "values": [{"measurement": "MNTC", "setting": "[1]", "value": 200.00, "unit": "µg/mL"}]}
{"compound": "O=C(O)/C=C/c1ccc(O)c(O)c1", "note": "[Caffeic acid]", "values": [{"measurement": "MNTC", "setting": "[1]", "value": 50.00, "unit": "µg/mL"}]}
{"compound": "O=C(/C=C/c1ccc(O)c(O)c1)O[C@H]1[C@H](O)C[C@](O)(C(=O)O)C[C@H]1O", "note": "[Cryptochlorogenic acid, cryptochlorogenic acid]", "values": [{"measurement": "MNTC", "setting": "[1]", "value": 100.00, "unit": "µg/mL"}]}
{"compound": "O=C(O)c1cc(O)c(O)c(O)c1", "note": "[Gallic acid, gallic acid]", "values": [{"measurement": "MNTC", "setting": "[1]", "value": 6.25, "unit": "µg/mL"}]}
{"compound": "O=c1c(O[C@@H]2O[C@H](CO)[C@H](O)[C@H](O)[C@H]2O)c(-c2ccc(O)c(O)c2)oc2cc(O)cc(O)c12", "note": "[Hyperoside]", "values": [{"measurement": "MNTC", "setting": "[1]", "value": 200.00, "unit": "µg/mL"}]}
{"compound": "O=C(/C=C/c1ccc(O)c(O)c1)O[C@H](Cc1ccc(O)c(O)c1)C(=O)O", "note": "[Rosmarinic acid, rosmarinic acid]", "values": [{"measurement": "MNTC", "setting": "[1]", "value": 50.00, "unit": "µg/mL"}, {"measurement": "IC50", "setting": "[2]", "value": 11.9, "unit": "µg/mL"}]}
{"compound": "C[C@@H]1O[C@@H](OC[C@H]2O[C@@H](Oc3c(-c4ccc(O)c(O)c4)oc4cc(O)cc(O)c4c3=O)[C@H](O)[C@@H](O)[C@@H]2O)[C@H](O)[C@H](O)[C@H]1O", "note": "[Rutin, rutin]", "values": [{"measurement": "MNTC", "setting": "[1]", "value": 200.00, "unit": "µg/mL"}, {"measurement": "EV71-induced CPE and viral replication", "setting": "[3]", "value": "significantly suppress"}]}
{"compound": "NC(=O)c1ncn([C@@H]2O[C@H](CO)[C@@H](O)[C@H]2O)n1", "note": "[ribavirin, Ribavirin, reference compound]", "values": [{"measurement": "CC50 at 48 h", "setting": "[4]", "value": 2430, "unit": "µg/mL"}, {"measurement": "MNTC (maximum non-toxic concentration)", "setting": "[1]; cell survival rate ≥ 90%", "value": 1, "unit": "mg/mL"}, {"measurement": "IC50", "setting": "[2]", "value": 290, "unit": "µg/mL"}]}
